The record followed here is patent publication EP0745083B1, “2-HETEROARYL-5,11-DIHYDRO-6H-DIPYRIDO [3,2-b:2',3'-e][1,4]DIAZEPINES AND THEIR USE IN THE PREVENTION OR TREATMENT OF HIV INFECTION” (BOEHRINGER INGELHEIM PHARMACEUTICALS INC., priority 1994, dated 1995).

Each structure is given as a SMILES string.

Series [1] addresses T1, HIV-1 RT Y181C (Human immunodeficiency virus type 1 group M subtype B, UniProt P03367, Y780C).
T1 construct: Utilization of mutant RT eraymes (Y181C and Y181L, prepared by site-directed mutagenesis); made in house
Nature of the series: Reverse Transcriptase (RT) Assay, Y181C mutant enzyme. The class given is biochemical, Human Immunodeficiency Virus (HIV-1). The note with it: 1 µM compound, read-out: Reverse Transciptase Assay % inhibition (1 µM) Y181C.

Series [2] is described as follows: MTT assay (cytotoxicity). The class given is cell-based. The following applies: human; H9 cells; five days incubation. On the procedure: In order to roughly assess the cytotoxicity of the compounds provided by the invention, several such compounds were tested in the MTT Assay described below. Compounds having a relatively high CC50 are preferred.
The MTT [3-(4,5-dimethylthiazol-2-yl)-2,5 diphenyl tetrazolium bromide) assay is based on cleavage of tetrazolium bromide by metabolically active cells, resulting in a highly quantitative blue color. This assay has been previously described (1) but has been optimized for the purposes of the testing reported herein.
The H9 cell line (2), an established human lymphoma suspension cell line grown in RPMI 1640 supplemented with 10% fetal bovine serum, is used as the target cell line in the assay. Cells (100µL) are plated in microtest plate wells at a concentration of 10^5 cells per mL in the presence of varying concentrations of inhibitor. The cells are incubated at 37°C in a humidified CO2 incubator. Five days later, 20µL of MTT (5mg/mL in RPMI 1640, sonicated, 0.2 micron filtered, and stored at 4°C) is added to each well. After 4 hours additional incubation at 37°C, 60µL of Triton-X is added to each well and thoroughly mixed to aid the solubilization of the crystals. Absolute ethanol (5µL) is added to each well and the resulting mixture is incubated for 30 minutes at 60°C and immediately read on a plate reader (Dynatech) at a wavelength of 570nm.
Data from this assay are used to generate a nonlinear regression analysis which yields an CC50.
A general note: Formazan colour is commonly taken as a measure of viable cells.

Series [3] concerns the target T2, HIV-1 RT Y188L (Human immunodeficiency virus type 1 group M subtype B, UniProt P03367, Y787L).
T2 construct: effective against the reverse transcriptase of many mutant viruses; made in house
Nature of the series: Reverse Transcriptase (RT) Assay, Y188L mutant enzyme. The class given is biochemical, Human Immunodeficiency Virus (HIV-1). The note with it: 1 µM compound.

For the compound `CN1C(=O)c2cccnc2N(C2CC2)c2nc(-c3cn[nH]c3)ccc21` [Example 6, 5,11-Dihydro-5-methyl-11-c-propyl-2-(4-pyrazolyl)-6H-dipyrido[3,2-b:2',3'-e][1,4]diazepin-6-one], the inhibition at 1 µM in series [1] was found to be 87%. The cytotoxic concentration (CC50) at 120 h in series [2] was more than 60 µM. In addition, the “Reverse Transciptase Assay % inhibition (1 µM) Y188L” value in series [3] is reported as 84%.

In the case of `CCN1c2ncccc2C(=O)N(C)c2ccc(-c3cn[nH]c3)nc21` [Example 1, 5,11-Dihydro-11-ethyl-5-methyl-2-(4-pyrazolyl)-6H-dipyrido[3,2-b:2'3'-e][1,4]diazepin-6-one], the inhibition at 1 µM in series [1] amounted to 96%. In series [2], this compound gave a CC50 at 120 h of more than 60 µM. In series [3] (1 µM), the “Reverse Transciptase Assay % inhibition (1 µM) Y188L” value came to 77%.

For the compound `CCN1c2ncccc2C(=O)N(C)c2ccc(-c3cc[nH]c3)nc21` [Example 12, 5,11-Dihydro-11-ethyl-5-methyl-2-(3-pyrrolyl)-6H-dipyrido[3,2-b:2',3'-e][1,4]diazepin-6-one], the inhibition at 1 µM in series [1] was 91%. Besides, in series [2], the cytotoxic concentration (CC50) at 120 h is more than 50 µM.

As to `CN1C(=O)c2cccnc2N(C2CC2)c2nc(-c3cc[nH]c3)ccc21` [Example 25, 11-Cyclopropyl-5,11-dihydro-5-methyl-2-(3-pyrrolyl)-6H-dipyrido[3,2-b:2',3'-e][1,4]diazepin-6-one], in series [1], the inhibition at 1 µM is 86%. Further, the CC50 at 120 h in series [2] is more than 80 µM. The “Reverse Transciptase Assay % inhibition (1 µM) Y188L” value in series [3] stood at 80%.

The inhibition is the percentage by which the read-out fell short of the control. For orientation: CC50 means the concentration at which the toxic effect on the cells reaches its halfway point. Higher therefore signals better tolerance by the cells.
